Measured values from ChEMBL document CHEMBL4007394, “Type I DNA Topoisomerases” (J Med Chem, 2017).

Assays:
[1] = molecular target: Bifunctional 3'-5' exonuclease/ATP-dependent helicase WRN (Homo sapiens, UniProt Q14191); assay: Inhibition of recombinant WRN (unknown origin) helicase activity expressed in baculovirus expression system using forked duplex DNA as substrate after 15 mins by polyacrylamide gel electrophoresis
[2] = Inhibition of recombinant Streptococcus pneumoniae R6 topoisomerase-1 expressed in Escherichia coli assessed as reduction in enzyme-catalyzed relaxation of supercoiled pBR322 DNA preincubated for 10 mins by ethidium bromide staining based electrophoresis

Chain of Bifunctional 3'-5' exonuclease/ATP-dependent helicase WRN (Q14191 whole entry): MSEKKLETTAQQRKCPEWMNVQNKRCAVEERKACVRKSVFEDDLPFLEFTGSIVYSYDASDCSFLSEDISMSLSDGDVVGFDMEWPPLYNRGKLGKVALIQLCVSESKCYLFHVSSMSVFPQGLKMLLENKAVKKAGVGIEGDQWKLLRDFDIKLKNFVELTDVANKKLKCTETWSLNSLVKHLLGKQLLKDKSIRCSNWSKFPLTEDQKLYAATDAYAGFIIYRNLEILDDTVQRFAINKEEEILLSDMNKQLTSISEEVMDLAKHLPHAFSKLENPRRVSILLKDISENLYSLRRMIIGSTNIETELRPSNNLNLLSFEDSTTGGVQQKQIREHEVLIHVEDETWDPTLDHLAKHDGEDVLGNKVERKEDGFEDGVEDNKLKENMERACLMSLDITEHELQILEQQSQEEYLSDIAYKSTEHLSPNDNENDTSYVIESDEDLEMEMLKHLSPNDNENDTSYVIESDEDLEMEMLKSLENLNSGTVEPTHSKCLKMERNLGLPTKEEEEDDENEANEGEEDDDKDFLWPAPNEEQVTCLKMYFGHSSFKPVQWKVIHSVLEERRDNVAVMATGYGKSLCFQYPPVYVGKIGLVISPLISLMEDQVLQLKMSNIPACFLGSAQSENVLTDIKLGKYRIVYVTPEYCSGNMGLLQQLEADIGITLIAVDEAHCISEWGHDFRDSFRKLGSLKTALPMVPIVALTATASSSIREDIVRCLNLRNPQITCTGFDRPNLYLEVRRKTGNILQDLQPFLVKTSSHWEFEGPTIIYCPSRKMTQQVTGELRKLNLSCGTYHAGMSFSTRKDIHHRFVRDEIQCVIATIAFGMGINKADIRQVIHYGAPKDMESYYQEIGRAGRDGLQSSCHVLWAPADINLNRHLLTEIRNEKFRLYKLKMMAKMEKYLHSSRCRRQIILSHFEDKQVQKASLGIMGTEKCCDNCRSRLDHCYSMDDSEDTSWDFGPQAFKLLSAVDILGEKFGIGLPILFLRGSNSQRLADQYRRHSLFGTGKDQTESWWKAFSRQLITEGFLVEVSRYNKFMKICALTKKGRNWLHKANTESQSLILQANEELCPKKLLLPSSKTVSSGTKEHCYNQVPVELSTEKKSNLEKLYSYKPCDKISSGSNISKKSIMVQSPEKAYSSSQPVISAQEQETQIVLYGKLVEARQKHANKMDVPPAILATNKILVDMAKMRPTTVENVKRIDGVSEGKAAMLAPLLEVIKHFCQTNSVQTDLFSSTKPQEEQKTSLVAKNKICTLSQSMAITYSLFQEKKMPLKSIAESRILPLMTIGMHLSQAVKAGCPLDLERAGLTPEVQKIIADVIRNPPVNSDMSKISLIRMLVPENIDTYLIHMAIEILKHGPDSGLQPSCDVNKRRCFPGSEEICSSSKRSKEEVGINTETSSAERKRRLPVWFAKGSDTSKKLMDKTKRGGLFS

IC50 [1] [µM]	Compound	IC50 [2] [µM]
3	CCC(=O)OCN1C(=O)C=CC1=O	–
–	CNCCc1cc2c(c3c1ccc1cc4c(cc13)OCO4)OCO2	17
